In patent US20160022775A1, “TREATING LYSOSOMAL STORAGE DISEASE” (UNIVERSITY OF ROCHESTER, priority 2013, published 2016):

Assays:
[1] = tested on: primary OPCs; assay: Survival of OPCs exposed to toxic lipids (calcein AM / propidium iodide, CELIGO); assay type: cell-based
Method: Whether toxic lipids have similar effects on the function of oligodendrocyte precursor cells (OPCs, the direct ancestors of myelin-forming oligodendrocytes), due to the common features of myelin breakdown and failure to repair such damage in LSDs, was determined. These experiments all used standard techniques (see Mayer et al. PNAS, 91: 7496-7500 (1994); Ibarrola et al. Dev. Biol. 180: 1-121 (1996); Smith et al. PNAS 97: 10032-10037 (2000); Power et al. Dev. Biol. 245: 362-375 (2002); Dietrich et al. J. Biol. 5: e22 (2006); Li et al. PLoS Biol. 5: e35 (2007)), as adapted to enable rapid automated analysis of microscopy images captured using the CELIGO® imaging system (Brooks Automation, Chelmsford, Mass.). This system enables collection of data using brightfield and three-color fluorescence and provides similar information to be obtained at the single cell level in adherent cell cultures as yielded by flow cytometry. This approach enables quantitatively analysis of 80 different experimental conditions (in triplicate) per hour.
(§1) Studies on division and survival of OPCs exposed to 0.1, 0.5, 1, 2, 5 or 10 μM PC, GPS or LS were conducted for 1, 2, 3 or 5 days. These experiments followed standard procedures (see Mayer et al. PNAS, 91: 7496-7500 (1994); Dietrich et al. J. Biol. 5: e22 (2006); and Han et al. J. Biol. 7 (4):12 (2008)) except that cell death was quantified using calcein AM and propidium iodide (PI) labeling of live cultures was used to identify live and dead cells, respectively. […] These dyes effectively overcome the problems with dyes for which cell numbers are inferred from metabolic activity (e.g., MTT, Alamar Blue), and provide quantitative information on cell numbers. Independent confirmation was obtained in all cases by visual examination of cultures. In these, and all other cases, all experiments were repeated at least three times, and all data points were collected in triplicate. All experiments were conducted in conditions of 5% O2, to more closely mimic physiological oxygen concentrations.
The sensitivity of primary OPCs to PC was determined. The sensitivity of the cells to glucopsychosine (GPC) and lysosulfatide (LS) was also examined. […] Thus, OPCs are even more sensitive to PC than oligodendrocytes, which are sensitive at 10 μM psychosine. More critically, they are an order of magnitude more sensitive than indicated by studies described in Zaka et al. (Mol. Cell Neurosci. 30 (3): 398-407 (2005)) on immortalized cell lines.

[2] = tested on: OPCs; assay: OPC division by clonal analysis in the presence of psychosine; assay type: cell-based, rat; details: OPCs grown in the presence of PDGF for 6 days
Method: As shown, by day 3 even 3.3 μM PC caused marked cell death. Division was analyzed by clonal analysis, and exposure to 1 μM PC caused a marked reduction in clonal size for cells grown in the presence of PDGF for 6 days.
as §1

[3] = tested on: oligodendrocyte progenitor cells; assay: Migration of oligodendrocyte progenitor cells outward from a drop of cells; assay type: cell-based; details: OPCs exposed to PDGF; not a lethal level
Method: Exposure of oligodendrocyte progenitor cells to 1 μM psychosine is enough to greatly reduce cell migration.
Another aspect of psychosine function is to cause alterations in the cytoskeleton, which in dividing cells is manifested as a failure of migration. The migration of oligodendrocyte progenitor cells outward from a drop of cells was examined. Cells were stained with calcein to label living cells and propidium iodide (PI) to label dead cells. […] This effect was observed on multiple cell types.

[4] = tested on: human fetal neuroepithelial stem cells (hNSCs); assay: Sensitivity of human CNS precursor cells to toxic lipids; assay type: cell-based
[5] = tested on: lysosomal pH of cells exposed to psychosine; assay: Lysosomal pH in cells exposed to psychosine; assay type: cell-based; details: cells exposed to psychosine versus normal cells
Description: The effects of cytoskeletal collapse and changes in lysosomal pH were examined. […] The agents that protect both division and survival also restore lysosomal pH to a normal range. However, […] that rescue cell division examined for their effects on lysosomal pH also restore normal levels of pH. Thus, rescuing lysosomal pH is not sufficient to rescue cell survival. Further, agents chosen solely on the basis of rescue of lysosomal pH are not sufficient to also function as rescue agents in cell survival.

[6] = tested on: oligodendrocytes; details: cited from earlier work
[7] = tested on: immortalized cell line characterized as an oligodendrocyte progenitor cell line; details: Zaka et al.; over 24 hours; cited from earlier work

CCCCCCCCCCCCC/C=C/[C@@H](O)[C@@H](N)CO[C@@H]1O[C@H](CO)[C@H](O)[C@H](O)[C@H]1O [psychosine]
exposure level as low as which toxic for OPCs [1]: 5 µM
concentration causing marked cell death ([1]; purified OPCs, by day 3, calcein AM, CELIGO): 3.3 µM
concentration causing marked reduction in clonal size [2]: 1 µM
concentration enough to greatly reduce cell migration [3]: 1 µM
vulnerability of hNSCs compared with rat OPCs [4]: at least as vulnerable
effect on pH of exposed cells [5]: becomes more alkaline
concentration at which oligodendrocytes are sensitive [6]: 10 µM
concentration at which immortalized OPC line is vulnerable / marked cell death [7]: 50 µM
